Measured values: paper PMC8843100, “Development of newly synthesised quinazolinone-based CDK2 inhibitors with potent efficacy against melanoma” (Journal of Enzyme Inhibition and Medicinal Chemistry, 2022)

Assays:
NCI-H23 = test: NCI-60 single dose screen, sulforhodamine B; format: cell-based, human; settings: Non-small cell lung cancer NCI-H23; single dose 10^−5 M
Procedure: (§1) In this research, all of the newly synthesised quinazolinones were subjected to in vitro anticancer screening by the National Cancer Institute (USA) against 60 different human cell lines including leukaemia, non-small cell lung cancer, colon cancer, CNS cancer, melanoma, ovarian cancer, renal cancer, prostate cancer, and breast cancer. The tested compounds were evaluated at a single dose (10^−5 M). […] Regarding the benzenesulfonamide counterparts, the introduction of an electron-withdrawing group on the benzenesulfonamide moiety increased the inhibitory activity on the glioblastoma cell line SNB-75 as depicted by the chloro derivative 5c (GI% = 63.09) which was higher than that of the unsubstituted derivative 5a (GI% = 40.06) and the methyl derivative 5b (GI% = 33.03).
(§2) 1. Cytotoxicity screening against a panel of 60 human tumor cell lines
(§3) All the compounds were selected for NCI-60 Human Tumor Cell Lines Screen by the Developmental Therapeutics Program (DTP) at the National Cancer Institute (NCI), Maryland, USA. The operation of this screen utilizes 60 different human tumor cell lines, representing leukemia, non-small-cell lung cancer, colon cancer, CNS cancer, melanoma, ovarian cancer, renal cancer, prostate cancer and breas t cancer.
(§4) The compounds were supplied as dry powder and a single concentration is tested in all 60 cell lines at a single dose of 10 µM solution in dimethyl sulfoxide (DMSO) using Sulforhodamine B assay. Briefly, cells are seeded in 96 well plates at an appropriate density and incubated for 1 day. After 1 day, some of the plates are processed to determine the density time zero. To the remaining plates, compounds are added at 10 µM concentration. Plates are incubated a further 2 days, then fixed and staine d with sulphorhodamine B. Growth inhibition is calculated relative to cells without drug treatment and the time zero control. The use of a time zero control allows the determination of cell kill as well as net growth inhibition. […]

KM12 = test: NCI-60 single dose screen, sulforhodamine B; format: cell-based, human; settings: Colon cancer KM12; single dose 10^−5 M
Procedure: as §1, §2, §3, §4

SR = test: NCI-60 single dose screen, sulforhodamine B; format: cell-based, human; settings: Leukaemia SR; single dose 10^−5 M
Procedure: as §1, §2, §3, §4

OVCAR-4 = test: NCI-60 single dose screen, sulforhodamine B; format: cell-based, human; settings: Ovarian cancer OVCAR-4; single dose 10^−5 M
Procedure: as §1, §2, §3, §4

ACHN = test: NCI-60 single dose screen, sulforhodamine B; format: cell-based, human; settings: Renal cancer ACHN; single dose 10^−5 M
Procedure: as §1, §2, §3, §4

PC-3 = test: NCI-60 single dose screen, sulforhodamine B; format: cell-based, human; settings: Prostate cancer PC-3; single dose 10^−5 M
Procedure: as §1, §2, §3, §4

NCI-H460 = test: NCI-60 single dose screen, sulforhodamine B; format: cell-based, human; settings: Non-small cell lung cancer NCI-H460; single dose 10^−5 M
Procedure: as §1, §2, §3, §4

T-47D = test: NCI-60 single dose screen, sulforhodamine B; format: cell-based, human; settings: Breast cancer T-47D; single dose 10^−5 M
Procedure: as §1, §2, §3, §4

OVCAR-8 = test: NCI-60 single dose screen, sulforhodamine B; format: cell-based, human; settings: Ovarian cancer OVCAR-8; single dose 10^−5 M
Procedure: as §1, §2, §3, §4

MALME-3M = test: NCI-60 single dose screen, sulforhodamine B; format: cell-based, human; settings: Melanoma MALME-3M; single dose 10^−5 M
Procedure: as §1, §2, §3, §4

HOP-92 = test: NCI-60 single dose screen, sulforhodamine B; format: cell-based, human; settings: Non-small cell lung cancer HOP-92; single dose 10^−5 M
Procedure: as §1, §2, §3, §4

A498 = test: NCI-60 single dose screen, sulforhodamine B; format: cell-based, human; settings: Renal cancer A498; single dose 10^−5 M
Procedure: as §1, §2, §3, §4

A549/ATCC = test: NCI-60 single dose screen, sulforhodamine B; format: cell-based, human; settings: Non-small cell lung cancer A549/ATCC; single dose 10^−5 M
Procedure: as §1, §2, §3, §4

SF-268 = test: NCI-60 single dose screen, sulforhodamine B; format: cell-based, human; settings: CNS cancer SF-268; single dose 10^−5 M
Procedure: as §1, §2, §3, §4

SN12C = test: NCI-60 single dose screen, sulforhodamine B; format: cell-based, human; settings: Renal cancer SN12C; single dose 10^−5 M
Procedure: as §1, §2, §3, §4

HOP-62 = test: NCI-60 single dose screen, sulforhodamine B; format: cell-based, human; settings: Non-small cell lung cancer HOP-62; single dose 10^−5 M
Procedure: as §1, §2, §3, §4

SK-MEL-5 = test: NCI-60 single dose screen, sulforhodamine B; format: cell-based, human; settings: Melanoma SK-MEL-5; single dose 10^−5 M
Procedure: as §1, §2, §3, §4

HS 578T = test: NCI-60 single dose screen, sulforhodamine B; format: cell-based, human; settings: Breast cancer HS 578T; single dose 10^−5 M
Procedure: as §1, §2, §3, §4

TK-10 = test: NCI-60 single dose screen, sulforhodamine B; format: cell-based, human; settings: Renal cancer TK-10; single dose 10^−5 M
Procedure: as §1, §2, §3, §4

U251 = test: NCI-60 single dose screen, sulforhodamine B; format: cell-based, human; settings: CNS cancer U251; single dose 10^−5 M
Procedure: as §1, §2, §3, §4

EKVX = test: NCI-60 single dose screen, sulforhodamine B; format: cell-based, human; settings: Non-small cell lung cancer EKVX; single dose 10^−5 M
Procedure: as §1, §2, §3, §4

HT29 = test: NCI-60 single dose screen, sulforhodamine B; format: cell-based, human; settings: Colon cancer HT29; single dose 10^−5 M
Procedure: as §1, §2, §3, §4

CCRF-CEM = test: NCI-60 single dose screen, sulforhodamine B; format: cell-based, human; settings: Leukaemia CCRF-CEM; single dose 10^−5 M
Procedure: as §1, §2, §3, §4

NCI-H522 = test: NCI-60 single dose screen, sulforhodamine B; format: cell-based, human; settings: Non-small cell lung cancer NCI-H522; single dose 10^−5 M
Procedure: as §1, §2, §3, §4

786-0 = test: NCI-60 single dose screen, sulforhodamine B; format: cell-based, human; settings: Renal cancer 786-0; single dose 10^−5 M
Procedure: as §1, §2, §3, §4

BT-549 = test: NCI-60 single dose screen, sulforhodamine B; format: cell-based, human; settings: Breast cancer BT-549; single dose 10^−5 M
Procedure: as §1, §2, §3, §4

UACC-257 = test: NCI-60 single dose screen, sulforhodamine B; format: cell-based, human; settings: Melanoma UACC-257; single dose 10^−5 M
Procedure: as §1, §2, §3, §4

HCC-2998 = test: NCI-60 single dose screen, sulforhodamine B; format: cell-based, human; settings: Colon cancer HCC-2998; single dose 10^−5 M
Procedure: as §1, §2, §3, §4

CAKI-1 = test: NCI-60 single dose screen, sulforhodamine B; format: cell-based, human; settings: Renal cancer CAKI-1; single dose 10^−5 M
Procedure: as §1, §2, §3, §4

NCI-H322M = test: NCI-60 single dose screen, sulforhodamine B; format: cell-based, human; settings: Non-small cell lung cancer NCI-H322M; single dose 10^−5 M
Procedure: as §1, §2, §3, §4

OVCAR-3 = test: NCI-60 single dose screen, sulforhodamine B; format: cell-based, human; settings: Ovarian cancer OVCAR-3; single dose 10^−5 M
Procedure: as §1, §2, §3, §4

SMILES	GI% at 10^−5 M (NCI-H23)	GI% at 10^−5 M (KM12)	GI% at 10^−5 M (SR)	GI% at 10^−5 M (OVCAR-4)	GI% at 10^−5 M (ACHN)	GI% at 10^−5 M (PC-3)	GI% at 10^−5 M (NCI-H460)	GI% at 10^−5 M (T-47D)	GI% at 10^−5 M (OVCAR-8)	GI% at 10^−5 M (MALME-3M)	GI% at 10^−5 M (HOP-92) [%]	GI% at 10^−5 M (A498)	GI% at 10^−5 M (A549/ATCC)	GI% at 10^−5 M (SF-268)	GI% at 10^−5 M (SN12C)	GI% at 10^−5 M (HOP-62) [%]	GI% at 10^−5 M (SK-MEL-5)	GI% at 10^−5 M (HS 578T)	GI% at 10^−5 M (TK-10)	GI% at 10^−5 M (U251)	other results
O=C(CNn1c(COc2ccccc2)nc2ccccc2c1=O)Nc1ccc(Cl)cc1 [Compound 4c, N-(4-chlorophenyl)-2-((4-oxo-2-(phenoxymethyl)quinazolin-3(4H)-yl)amino)acetamide]	– (– means GI < 10%)	– (– means GI < 10%)	10.05%	11.8%	– (– means GI < 10%)	15.9%	– (– means GI < 10%)	29.33%	– (– means GI < 10%)	12.02%	29.33	16.35%	– (– means GI < 10%)	– (– means GI < 10%)	19.15%	12.12	– (– means GI < 10%)	19.01%	– (– means GI < 10%)	– (– means GI < 10%)	GI% at 10^−5 M (EKVX): 19.01%; GI% at 10^−5 M (HT29): – (– means GI < 10%); GI% at 10^−5 M (CCRF-CEM): – (– means GI < 10%); GI% at 10^−5 M (NCI-H522): 24.21%; GI% at 10^−5 M (786-0): – (– means GI < 10%); GI% at 10^−5 M (BT-549): 12.12%; GI% at 10^−5 M (UACC-257): – (– means GI < 10%); GI% at 10^−5 M (HCC-2998): – (– means GI < 10%); GI% at 10^−5 M (CAKI-1): 23.58%; GI% at 10^−5 M (NCI-H322M): – (– means GI < 10%); GI% at 10^−5 M (OVCAR-3): – (– means GI < 10%); melting point: 165 to 167 °C
O=c1c2ccccc2nc(COc2ccccc2)n1NS(=O)(=O)c1ccccc1 [Compound 5a, N-(4-oxo-2-(phenoxymethyl)quinazolin-3(4H)-yl)benzenesulfonamide]	11.73%	– (– means GI < 10%)	– (– means GI < 10%)	– (– means GI < 10%)	11.23%	– (– means GI < 10%)	– (– means GI < 10%)	– (– means GI < 10%)	– (– means GI < 10%)	– (– means GI < 10%)	10.25	– (– means GI < 10%)	– (– means GI < 10%)	– (– means GI < 10%)	11.46%	16.59	– (– means GI < 10%)	– (– means GI < 10%)	– (– means GI < 10%)	– (– means GI < 10%)	GI% at 10^−5 M (EKVX): 15.21%; GI% at 10^−5 M (HT29): – (– means GI < 10%); GI% at 10^−5 M (CCRF-CEM): – (– means GI < 10%); GI% at 10^−5 M (NCI-H522): – (– means GI < 10%); GI% at 10^−5 M (786-0): – (– means GI < 10%); GI% at 10^−5 M (BT-549): – (– means GI < 10%); GI% at 10^−5 M (UACC-257): – (– means GI < 10%); GI% at 10^−5 M (HCC-2998): – (– means GI < 10%); GI% at 10^−5 M (CAKI-1): 15.07%; GI% at 10^−5 M (NCI-H322M): – (– means GI < 10%); GI% at 10^−5 M (OVCAR-3): – (– means GI < 10%); melting point: 114 to 116 °C
Cc1ccc(S(=O)(=O)Nn2c(COc3ccccc3)nc3ccccc3c2=O)cc1 [Compound 5b, 4-methyl-N-(4-oxo-2-(phenoxymethyl)quinazolin-3(4H)-yl)benzenesulfonamide]	11.47%	– (– means GI < 10%)	– (– means GI < 10%)	– (– means GI < 10%)	15%	– (– means GI < 10%)	– (– means GI < 10%)	– (– means GI < 10%)	– (– means GI < 10%)	– (– means GI < 10%)	10.82	– (– means GI < 10%)	– (– means GI < 10%)	– (– means GI < 10%)	– (– means GI < 10%)	11.16	– (– means GI < 10%)	– (– means GI < 10%)	23.64%	– (– means GI < 10%)	GI% at 10^−5 M (EKVX): 13.18%; GI% at 10^−5 M (HT29): – (– means GI < 10%); GI% at 10^−5 M (CCRF-CEM): – (– means GI < 10%); GI% at 10^−5 M (NCI-H522): – (– means GI < 10%); GI% at 10^−5 M (786-0): – (– means GI < 10%); GI% at 10^−5 M (BT-549): – (– means GI < 10%); GI% at 10^−5 M (UACC-257): – (– means GI < 10%); GI% at 10^−5 M (HCC-2998): – (– means GI < 10%); GI% at 10^−5 M (CAKI-1): – (– means GI < 10%); GI% at 10^−5 M (NCI-H322M): – (– means GI < 10%); GI% at 10^−5 M (OVCAR-3): – (– means GI < 10%); melting point: 140 to 142 °C
